EC50 data for 23 compounds are collected here from US9062028B2, “Bicyclic nitrogen containing heteroaryl TGR5 receptor modulators” (Bristol-Myers Squibb Company, priority 2011, dated 2015).

Each structure is given as a SMILES string. pEC50: −log10 of the molar value. Where a name gives a salt, the structure may show the parent alone.

For orientation: pEC50 means −log10 of the EC50, conventionally taken in molar units.

The experiment concerns the target T1, recombinant human TGR5 (Homo sapiens, UniProt Q8TDU6).
T1 construct: expressed in transfected cells
T1 sequence (Q8TDU6 1-330): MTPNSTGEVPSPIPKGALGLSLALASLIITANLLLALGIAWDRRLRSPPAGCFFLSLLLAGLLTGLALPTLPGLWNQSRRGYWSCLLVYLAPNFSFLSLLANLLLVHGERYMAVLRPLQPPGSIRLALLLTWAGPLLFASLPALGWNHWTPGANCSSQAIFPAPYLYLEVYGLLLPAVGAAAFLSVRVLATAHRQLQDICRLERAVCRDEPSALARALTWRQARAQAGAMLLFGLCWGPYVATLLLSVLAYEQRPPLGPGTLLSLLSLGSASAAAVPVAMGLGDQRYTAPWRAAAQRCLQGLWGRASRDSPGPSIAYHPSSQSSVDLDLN
In words: cAMP assay (cAMP accumulation, HTRF) in CHOK1 cells stably expressing TGR5. The format is cell-based. Conditions: CHOK1 cells stably expressing human TGR5, 30 minutes at RT, 1% DMSO. The method in brief:
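Agonist-induced cAMP accumulation: stable TGR5-CHOK1 cells treated 30 min at RT with compound (1% DMSO) plus 0.1 mM IBMX. HTRF ratio converted to nM cAMP via standard curve; EC50 from four-parameter logistic fit, midpoint between baseline and maximum.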
(Cyclic AMP is a second messenger, typically raised through Gs and lowered through Gi signalling.)
On to `Cc1c(Cl)cccc1OCCCC(=O)N1CCCc2c(-c3cnn(Cc4cccc(NC(=O)N[C@H](CCC(=O)O)C(=O)O)c4)c3)cccc21` [Example 534, (R)-2-(3-(3-((4-(1-(4-(3-Chloro-2-methylphenoxy)butanoyl)-1,2,3,4-tetra-hydroquinolin-5-yl)-1H-pyrazol-1-yl)methyl)phenyl)ureido) pentanedioic acid], for which the negative logarithm of the EC50 (pEC50) is 6.72.

In the case of `Cc1cccc(OCCCC(=O)N2C[C@@H]3C[C@@H]3c3c(-c4cnn(Cc5cccc(C(=O)NC[C@@H](N)C(=O)O)c5)c4)cccc32)c1C` [Example 887, (R)-2-Amino-3-(3-((4-((1aR,7bS )-3-(4-(2,3-dimethylphenoxy)butanoyl)-1a,2,3,7b-tetrahydro-1H-cyclopropa[c]quinolin-7-yl)-1H-pyrazol-1-yl)methyl)benzamido)propanoic acid], the negative-log EC50 (pEC50) was 6.74.

Regarding `Cc1cccc(OCCCC(=O)N2CCCc3c(-c4cnn(Cc5c(F)cc(C(=O)NCCC[C@H](NC(=N)N)C(=O)O)cc5Cl)c4)cccc32)c1C` [Example 171, (S)-5-(3-Chloro-4-((4-(1-(4-(2,3-dimethylphenoxy)butanoyl)-1,2,3,4-tetrahydroquinolin-5-yl)-1H-pyrazol-1-yl)methyl)-5-fluorobenzamido)-2-guanidinopentanoic acid, TFA salt], the negative-log EC50 (pEC50) is 7.25.

Turning to `Cc1c(Cl)cccc1OCCCC(=O)N1CCSc2c(-c3cnn(Cc4c(F)cc(C(=O)NCC(=O)O)cc4Cl)c3)cccc21` [Example 581, 2-(3-Chloro-4-((4-(4-(4-(3-chloro-2-methylphenoxy)butanoyl)-3,4-dihydro-2H-benzo[b][1,4]thaizin-8-yl)-1H-pyrazol-1-yl)methyl)-5-fluorobenzamido)acetic acid], the pEC50 was 7.42.

With `Cc1cccc(OCCCC(=O)N2C[C@@H]3C[C@@H]3c3c(-c4cnn(Cc5cccc(C(=O)N[C@H]6CCOC6=O)c5)c4)cccc32)c1C` [Example 891, 3-((4-((1aR,7bS)-3-(4-(2,3-Dimethylphenoxy)butanoyl)-1a,2,3,7b-tetrahydro-1H-cyclopropa[c]quinolin-7-yl)-1H-pyrazol-1-yl)methyl)-N-((S)-2-oxotetrahydrofuran-3-yl)benzamide], the pEC50 was 7.59.

In the case of `Cc1cccc(OCCCC(=O)N2CC3CC3c3c(-c4cnn(Cc5cc(C(=O)O)ccc5Cl)c4)cccc32)c1C` (centres unmarked) [Example 69H, 4-Chloro-3-((4-(3-(4-(2,3-dimethylphenoxy)butanoyl)-1a,2,3,7b-tetrahydro-1H-cyclopropa[c]quinolin-7-yl)-1H-pyrazol-1-yl)methyl)benzoic acid], the negative-log EC50 (pEC50) was 7.28.

For the compound `CCOC(=O)CNC(=O)c1cccc(Cn2cc(-c3cccc4c3[C@H]3C[C@H]3CN4C(=O)CCCOc3cccc(Cl)c3C)cn2)c1` [Example 924B, Ethyl 2-(3-((4-((1aR,7bS)-3-(4-(3-chloro-2-methylphenoxy)butanoyl)-1a,2,3,7b-tetrahydro-1H-cyclopropa[c]quinolin-7-yl)-1H-pyrazol-1-yl)methyl)benzamido)acetate], the pEC50 is 7.57.

For the compound `Cc1cccc(OCCCC(=O)N2CCCc3c(-c4cccc(COC(=O)N[C@@H](CC(=O)O)C(=O)O)c4)cccc32)c1C` [Example 268, (S)-2-((3-(1-(4-(2,3-Dimethylphenoxy)butanoyl)-1,2,3,4-tetrahydroquinolin-5-yl)benzyloxy)carbonylamino)succinic acid], the pEC50 is 5.30.

`Cc1cccc(OCCCC(=O)N2CCCc3c(-c4ccc(OCc5cccc(C(=O)O)c5)cn4)cccc32)c1C` [Example 123, 3-((6-(1-(4-(2,3-Dimethylphenoxy)butanoyl)-1,2,3,4-tetrahydroquinolin-5-yl)pyridin-3-yloxy)methyl)benzoic acid]: the pEC50 was 5.90.

In the case of `Cc1cccc(OCCCC(=O)N2CCCc3c(-c4cccc(COC(=O)N[C@H](Cc5c[nH]cn5)C(=O)O)c4)cccc32)c1C` [Example 288, (R)-2-((3-(1-(4-(2,3-Dimethylphenoxy)butanoyl)-1,2,3,4-tetrahydroquinolin-5-yl)benzyloxy)carbonylamino)-3-(1H-imidazol-4-yl)propanoic acid], the pEC50 was 5.40.

Turning to `Cc1cccc(OCCCC(=O)N2CCCc3c(-c4cnn(Cc5cccc(C(=O)N[C@@H](Cc6ccccc6)C(=O)O)c5)c4)cccc32)c1C` [Example 848, (S)-2-(3-((4-(1-(4-(2,3-Dimethylphenoxy)butanoyl)-1,2,3,4-tetrahydroquinolin-5-yl)-1H-pyrazol-1-yl)methyl)benzamido)-3-phenylpropanoic acid], the pEC50 was 6.71.

On to `Cc1c(Cl)cccc1OCCOC(=O)N1C[C@@H]2C[C@@H]2c2c(-c3cnn(Cc4cc(C(=O)N[C@@H](CCC[N+](C)(C)C)C(=O)O)ccc4Cl)c3)cccc21` [Example 690, (S)-4-Carboxy-4-(4-chloro-3-((4-((1aR,7bS)-3-((2-(3-chloro-2-methylphenoxy)ethoxy)carbonyl)-1a,2,3,7b-tetrahydro-1H-cyclopropa[c]quinolin-7-yl)-1H-pyrazol-1-yl)methyl)benzamido)-N,N,N-trimethylbutan-1-aminium, TFA salt], for which the negative-log EC50 (pEC50) is 7.35.

With `Cc1cccc(OCCOC(=O)N2CCOc3c(-c4cnn(Cc5cccc(C(=O)NCCS(=O)(=O)O)c5)c4)cccc32)c1C` [Example 182, 2-(3-((4-(4-((2-(2,3-Dimethylphenoxy)ethoxy)carbonyl)-3,4-dihydro-2H-benzo[b] [1,4]oxazin-8-yl)-1H-pyrazol-1-yl)methyl)benzamido) ethanesulfonic acid], the pEC50 is 6.23.

For the compound `Cc1cccc(OCCCC(=O)N2CCCc3c(-c4cnn(Cc5ccc[n+](C)c5)c4)cccc32)c1C` [Example 467, 3-((4-(1-(4-(2,3-Dimethylphenoxy)butanoyl)-1,2,3,4-tetrahydroquinolin-5-yl)-1H-pyrazol-1-yl)methyl)-1-methylpyridinium], the pEC50 is 5.53.

Turning to `COC(=O)[C@@H](CCC(=O)O)NC(=O)c1ccc(Cl)c(Cn2cc(-c3cccc4c3[C@H]3C[C@H]3CN4C(=O)OCCOc3cccc(Cl)c3C)cn2)c1` [Example 672, (R)-4-(4-Chloro-3-((4-((1aR,7bS)-3-((2-(3-chloro-2-methylphenoxy)ethoxy)carbonyl)-1a,2,3,7b-tetrahydro-1H-cyclopropa[c]quinolin-7-yl)-1H-pyrazol-1-yl)methyl)benzamido)-5-methoxy-5-oxopentanoic acid], the negative logarithm of the EC50 (pEC50) is 7.37.

Consider `Cc1cccc(OCCCC(=O)N2CCCOc3c(-c4cnn(Cc5c(F)cc(C(=O)O)cc5Cl)c4)cccc32)c1C` [Example 392, 3-Chloro-4-((4-(5-(4-(2,3-dimethylphenoxy)butanoyl)-2,3,4,5-tetrahydrobcnzo[b] [1,4]oxazepin-9-yl)-1H-pyrazol-1-yl)methyl)-5-fluorobenzoic acid], for which the pEC50 was 6.72.

On to `Cc1c(Cl)cccc1OCCOC(=O)N1C[C@@H]2C[C@@H]2c2c(-c3cnn(Cc4cc(C(=O)NC5(CC(=O)O)COC5)ccc4Cl)c3)cccc21` [Example 698, 2-(3-(4-Chloro-3-((4-((1aR,7bS)-3-((2-(3-chloro-2-methylphenoxy)ethoxy)carbonyl)-1a,2,3,7b-tetrahydro-1H-cyclopropa[c]quinolin-7-yl)-1H-pyrazol-1-yl)methyl)benzamido)oxetan-3-yl)acetic acid], for which the negative logarithm of the EC50 (pEC50) was 7.55.

As to `Cc1cccc(OCCCC(=O)N2CCCc3c(-c4cccc(COC(=O)NC(CCS)C(=O)O)c4)cccc32)c1C` (centres unmarked) [Example 289, 2-((3-(1-(4-(2,3-Dimethylphenoxy)butanoyl)-1,2,3,4-tetrahydroquinolin-5-yl)benzyloxy)carbonylamino)-4-mercaptobutanoic acid], the negative-log EC50 (pEC50) is 5.55.

Consider `Cc1cccc(OCCCC(=O)N2CCCc3c(-c4cnn(Cc5c(F)cc(C(=O)NCCC(=O)O)cc5Cl)c4)cccc32)c1C` [Example 176, 3-(3-Chloro-4-((4-(1-(4-(2,3-dimethylphenoxy)butanoyl)-1,2,3,4-tetrahydroquinolin-5-yl)-1H-pyrazol-1-yl)methyl)-5-fluorobenzamido) propanoic acid], for which the pEC50 was 7.33.

For the compound `Cc1c(Cl)cccc1OCCCC(=O)N1CCSc2c(-c3cnn(Cc4cccc(C(=O)NCCO)c4)c3)cccc21` [Example 592, 3-((4-(4-(4-(3-Chloro-2-methylphenoxy)butanoyl)-3,4-dihydro-2H-benzo[b][1,4]thiazin-8-yl)-1H-pyrazol-1-yl)methyl)-N-(2-hydroxyethyl) benzamide], the pEC50 was 7.52.

As for `Cc1cccc(OCCCC(=O)N2CCCc3c(-c4cnn(CCNC(=O)CC(=O)O)c4)cccc32)c1C` [Example 110J, 3-(2-(4-(1-(4-(2,3-Dimethylphenoxy)butanoyl)-1,2,3,4-tetrahydroquinolin-5-yl)-1H-pyrazol-1-yl)ethylamino)-3-oxopropanoic acid], the pEC50 was 5.48.

For `Cc1cccc(OCCCC(=O)N2CCCc3c(-c4cnn(Cc5cccc(NC(=O)C(N)C(O)(C(F)(F)F)C(F)(F)F)c5)c4)cccc32)c1C` (centres unmarked) [Example 500, 2-Amino-N-(3-((4-(1-(4-(2,3-dimethylphenoxy)butanoyl)-1,2,3,4-tetrahydroquinolin-5-yl)-1H-pyrazol-1-yl)methyl)phenyl)-4,4,4-trifluoro-3-hydroxy-3-(trifluoromethyl) butanamide], the pEC50 is 6.71.

Turning to `Cc1cccc(OCCCC(=O)N2CC3CC3c3c(-c4cnn(Cc5cccc(N)c5)c4)cccc32)c1C` (centres unmarked) [Example 69G, 1-(7-(1-(3-Aminobenzyl)-1H-pyrazol-4-yl)-1a,2-dihydro-1H-cyclopropa[c]quinolin-3(7bH)-yl)-4-(2,3-dimethylphenoxy)butan-1-one], the negative logarithm of the EC50 (pEC50) was 7.29.
